Results on 4 molecules are retold here after patent US20060134068A1, “Treatment of cancer by simultaneous inhibiton of BRAF and restoration or mimicry of p16INK4A activity” (Mount Sinai School of Medicine of New York University, priority 2004, published 2006).

Molecules are shown by their SMILES.

The test system of test [1] is mBRAF positive melanoma cells. To be noted: mice, Collisson et al. 2003; cited from earlier work.
In test [2] the test system is 624Mel, WM35, A375, and Mel1363 cells. Description: Preliminary chemotherapeutic treatment, daily cell counting and colony formation. Type of test: cell-based. The conditions noted are these: after 6-24 hr treatment, both concentrations.
Test [3] addresses CDK4 (Homo sapiens, UniProt P11802). The conditions noted are these: Kubo et al. 1999; cited from earlier work.
The test system of test [4] is untreated, advanced, melanoma. The conditions noted are these: 17 patients, treatment for a median of about 3 months; cited from earlier work.

Sequence of CDK4 (P11802 whole entry, species assumed): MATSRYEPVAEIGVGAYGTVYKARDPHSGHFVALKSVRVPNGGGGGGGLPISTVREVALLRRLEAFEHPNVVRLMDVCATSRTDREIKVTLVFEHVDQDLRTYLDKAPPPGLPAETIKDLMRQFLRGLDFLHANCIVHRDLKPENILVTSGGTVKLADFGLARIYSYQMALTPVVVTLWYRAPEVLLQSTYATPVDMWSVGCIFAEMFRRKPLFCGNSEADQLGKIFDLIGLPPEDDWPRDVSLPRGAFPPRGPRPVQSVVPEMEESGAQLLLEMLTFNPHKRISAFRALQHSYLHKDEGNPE
Sequence of CDK4 (P24385 whole entry partner, species assumed): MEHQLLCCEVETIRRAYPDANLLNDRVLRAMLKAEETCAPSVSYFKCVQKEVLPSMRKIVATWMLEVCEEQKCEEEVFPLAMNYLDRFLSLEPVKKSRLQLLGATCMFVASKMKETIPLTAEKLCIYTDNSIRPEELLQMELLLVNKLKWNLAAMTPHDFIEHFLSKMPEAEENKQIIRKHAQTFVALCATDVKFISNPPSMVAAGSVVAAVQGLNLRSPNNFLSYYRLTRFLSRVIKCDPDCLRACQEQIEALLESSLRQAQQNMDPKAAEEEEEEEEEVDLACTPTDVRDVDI

Consider `O=C(NOCC1CC1)c1ccc(F)c(F)c1Nc1ccc(I)cc1Cl` [CI 1040], for which the pulmonary metastases result in test [1] was “suppressed”.
As to `CC(=O)O[C@H]1C(=O)[C@@]2(C)[C@H]([C@H](OC(=O)c3ccccc3)[C@]3(O)C[C@H](OC(=O)[C@H](O)[C@@H](NC(=O)c4ccccc4)c4ccccc4)C(C)=C1C3(C)C)[C@]1(OC(C)=O)CO[C@@H]1C[C@@H]2O` [taxol], in test [2], the growth inhibition result is “Growth inhibition was observed”.
With `CN1CC[C@H](c2c(O)cc(O)c3c(=O)cc(-c4ccccc4Cl)oc23)[C@H](O)C1` [flavopiridol], the “inhibition of CDK4 activity, rank among the compounds” value in test [3] is on record as “most potent inhibitor”. For the same molecule, in test [4], the clinical response result is given as “no response”.
Consider `N.N.[Cl][Pt][Cl]` [cisplatin], for which the growth inhibition entry in test [2] is listed as “Growth inhibition was observed”.
